{"source": "patent US20090275730A1", "about": "“Temperature responsive depsipeptide polymer” (priority 2004, published 2009)", "experiment": "Water solubility and temperature responsibility in aqueous solvent (visual / turbidity)", "from_the_text": "However, the depsipeptide unit is not considered to be a material which exerts temperature responsibility in an aqueous solvent containing no organic solvent. […] Accordingly, the depsipeptide unit -Gly-X2-Cly-Hmb-Pro-(X2=any α-amino acid residue) is thought to be unsuitable as a temperature responsive material and thus has not been investigated intensively.", "data": [{"substance": "Poly[(Gly^1-Val^2-Gly^3-Hmb^4-Ala^5-Pro^6)-co-(Gly^7-Lys(Z)^8-Gly^9-Val^10-Ala^11-Pro^12)]", "values": [{"measurement": "temperature responsibility in aqueous solvent", "value": "temperature responsibility thereof was confirmed"}]}]}
